Activity calls are given as the source filed them.

By EC50 is commonly meant the concentration needed to bring the measured effect to its halfway point. A word on the IC50: it is the concentration needed to halve the response being measured. A word on the AC50: it is the midpoint of the concentration-response curve, whichever way the signal moves.

Assay [1] concerns the target Nucleotide-binding oligomerization domain-containing protein 2 (Homo sapiens, UniProt Q9HC29). The assay can be described thus: NOD2 signaling inhibitors, cell-based, luminescence, uHTS, HEK293 (AID 1566). Type of assay: functional.
Assay [2] concerns HEK293. The assay can be described thus: NOD1 signaling inhibitors, primary screen, cell-based, luminescence, uHTS (AID 1578). It is filed as functional. As to conditions: Homo sapiens.
Assay [3] deals with HEK293. Kind of assay: NOD2 signaling inhibitors in MDP-stimulated cells, cell-based, uHTS, luminescence (AID 2001). Type of assay: functional. As to conditions: Homo sapiens.
Assay [4] can be described thus: microbe, parasite or virus in culture. Type of assay: functional. The settings on record: Mycobacterium tuberculosis.
Assay [5] relates to HEK293. The assay can be described thus: cells. Type of assay: functional, cell-based. As to conditions: Homo sapiens.
In assay [6] the test system is HEK293. The assay can be described thus: cells. It is filed as functional, cell-based. As to conditions: Homo sapiens. The source holds these as a separate data set.
Assay [7] relates to Streptococcus sp. 'group A'. The assay can be described thus: growth inhibition of control SK(-) GAS strain, dose response, counter-screen for streptokinase expression inhibitor project, luminescence, kanamycin, BacTiterGlo, confirmation (AID 1900). It is filed as functional, organism-based.
For assay [8], the system named is HEK293. Kind of assay: cells. It is filed as functional, cell-based. The settings on record: Homo sapiens. This is another data set of the same source.
Another assay concerns Streptococcus. Kind of assay: Group A Streptococcus viability loss, dose response, counter-screen for streptokinase expression inhibitor project, luminescence, BacTiterGlo (AID 1915).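 Note: potency for reduction of bacterial viability or growth.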 Type of assay: functional, organism-based. (A counterscreen serves to expose hits that act by an unwanted route or on another target.)
In assay [9] the target is T1, Replicative DNA helicase DnaB (Mycobacterium tuberculosis, UniProt P9WMR3).
T1 sequence (P9WMR3 whole entry): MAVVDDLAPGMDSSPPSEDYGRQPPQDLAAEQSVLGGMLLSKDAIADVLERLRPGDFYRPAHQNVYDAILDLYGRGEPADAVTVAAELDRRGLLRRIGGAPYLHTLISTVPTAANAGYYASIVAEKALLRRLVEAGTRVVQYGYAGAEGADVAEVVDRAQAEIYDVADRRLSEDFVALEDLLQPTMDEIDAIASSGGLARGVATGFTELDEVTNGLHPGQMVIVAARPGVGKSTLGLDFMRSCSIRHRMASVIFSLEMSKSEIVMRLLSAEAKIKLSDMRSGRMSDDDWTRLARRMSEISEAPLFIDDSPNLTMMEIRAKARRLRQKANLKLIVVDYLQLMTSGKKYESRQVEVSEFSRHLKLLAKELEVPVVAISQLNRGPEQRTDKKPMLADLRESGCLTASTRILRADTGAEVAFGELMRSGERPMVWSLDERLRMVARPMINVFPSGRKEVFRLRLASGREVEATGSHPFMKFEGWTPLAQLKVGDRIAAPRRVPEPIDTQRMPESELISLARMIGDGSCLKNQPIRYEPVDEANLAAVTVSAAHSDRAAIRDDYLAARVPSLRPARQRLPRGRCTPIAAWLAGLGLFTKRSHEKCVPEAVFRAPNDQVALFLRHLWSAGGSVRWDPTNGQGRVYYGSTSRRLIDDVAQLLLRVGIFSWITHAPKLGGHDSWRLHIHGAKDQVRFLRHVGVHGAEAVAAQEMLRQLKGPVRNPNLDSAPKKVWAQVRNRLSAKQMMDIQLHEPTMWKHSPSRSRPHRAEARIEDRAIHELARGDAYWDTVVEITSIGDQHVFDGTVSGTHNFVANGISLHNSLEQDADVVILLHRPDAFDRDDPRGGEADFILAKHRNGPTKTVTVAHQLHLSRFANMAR
Kind of assay: DnaB intein splicing inhibitors, dose response, biochemical, cell-free fluorescence (AID 449749). Type of assay: functional.

A further assay addresses T2, Protein RecA (Mycobacterium tuberculosis, UniProt P9WHJ3).
T2 sequence (P9WHJ3 whole entry): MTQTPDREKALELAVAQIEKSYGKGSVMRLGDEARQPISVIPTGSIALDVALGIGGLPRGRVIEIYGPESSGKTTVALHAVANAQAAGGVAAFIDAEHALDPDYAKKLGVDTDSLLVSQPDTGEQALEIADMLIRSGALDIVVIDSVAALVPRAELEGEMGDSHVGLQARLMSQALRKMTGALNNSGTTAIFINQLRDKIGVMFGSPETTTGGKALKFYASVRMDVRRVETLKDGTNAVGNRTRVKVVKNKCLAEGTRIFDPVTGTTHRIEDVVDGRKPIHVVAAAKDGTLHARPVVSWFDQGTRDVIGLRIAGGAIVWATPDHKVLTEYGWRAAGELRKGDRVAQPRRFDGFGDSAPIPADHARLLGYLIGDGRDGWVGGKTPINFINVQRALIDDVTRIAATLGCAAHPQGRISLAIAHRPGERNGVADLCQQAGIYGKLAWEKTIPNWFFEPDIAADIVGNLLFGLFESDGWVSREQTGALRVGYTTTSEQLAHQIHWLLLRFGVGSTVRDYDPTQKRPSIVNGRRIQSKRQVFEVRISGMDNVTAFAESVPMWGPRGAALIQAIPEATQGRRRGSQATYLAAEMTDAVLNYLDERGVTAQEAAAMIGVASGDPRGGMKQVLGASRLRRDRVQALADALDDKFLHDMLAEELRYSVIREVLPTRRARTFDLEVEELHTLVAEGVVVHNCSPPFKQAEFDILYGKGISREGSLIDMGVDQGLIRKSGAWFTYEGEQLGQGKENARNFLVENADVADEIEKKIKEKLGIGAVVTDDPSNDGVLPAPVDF
The assay can be described thus: Fluorescence Cell-Free Homogeneous Dose Retest to Identify Inhibitors of RecA-Intein Splicing Activity. [Related pubchem assays (depositor defined):AID2097, AID2223, AID489010, AID492950]. Type of assay: functional.

Assay [10] deals with T3, Short transient receptor potential channel 4 (Mus musculus, UniProt Q9QUQ5).
T3 sequence (Q9QUQ5 whole entry): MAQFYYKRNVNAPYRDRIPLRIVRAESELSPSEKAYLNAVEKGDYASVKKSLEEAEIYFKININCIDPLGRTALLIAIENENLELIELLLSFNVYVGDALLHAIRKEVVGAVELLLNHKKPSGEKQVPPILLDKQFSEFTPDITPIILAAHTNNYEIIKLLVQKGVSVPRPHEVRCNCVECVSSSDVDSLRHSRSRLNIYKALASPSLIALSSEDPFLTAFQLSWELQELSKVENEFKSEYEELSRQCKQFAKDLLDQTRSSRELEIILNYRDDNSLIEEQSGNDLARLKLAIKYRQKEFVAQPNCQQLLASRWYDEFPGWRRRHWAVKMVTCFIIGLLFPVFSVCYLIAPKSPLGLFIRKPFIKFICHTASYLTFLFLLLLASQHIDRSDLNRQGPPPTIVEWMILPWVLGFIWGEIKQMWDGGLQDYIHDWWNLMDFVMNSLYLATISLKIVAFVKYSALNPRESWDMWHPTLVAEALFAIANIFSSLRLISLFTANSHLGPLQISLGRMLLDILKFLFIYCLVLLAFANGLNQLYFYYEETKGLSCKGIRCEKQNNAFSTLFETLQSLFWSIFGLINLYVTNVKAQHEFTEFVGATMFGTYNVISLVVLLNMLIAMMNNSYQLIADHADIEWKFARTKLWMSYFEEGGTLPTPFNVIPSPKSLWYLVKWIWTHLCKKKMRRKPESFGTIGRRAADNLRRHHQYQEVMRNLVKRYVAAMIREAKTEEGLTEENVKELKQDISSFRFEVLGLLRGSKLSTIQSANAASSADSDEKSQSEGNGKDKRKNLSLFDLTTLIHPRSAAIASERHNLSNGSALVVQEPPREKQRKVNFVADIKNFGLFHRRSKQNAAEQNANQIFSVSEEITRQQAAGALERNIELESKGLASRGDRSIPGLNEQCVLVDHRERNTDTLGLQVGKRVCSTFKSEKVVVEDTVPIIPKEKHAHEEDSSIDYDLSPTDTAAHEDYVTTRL
The assay can be described thus: mouse TRPC4 channel inhibitors, dose response, cell-based, HEK293 TRPC4/mu-opioid, Fluo-4 calcium (AID 434942).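 Note: potency of inhibitors blocking the TRPC4 calcium response.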 Type of assay: functional.

Assay [11] has as its target T4, Voltage-gated N-type calcium channel alpha-1B subunit/Amyloid beta A4 precursor protein-binding family A member 1 (Homo sapiens, UniProt Q00975+Q02410). It is filed as protein assay.
Assay [12] deals with E3 ubiquitin-protein ligase XIAP (Homo sapiens, UniProt P98170). Kind of assay: Counter Screen using XIAP-Bir3 for Chemical Antagonists of Bir1/2 domains of IAP-family anti-apoptotic proteins. [Related pubchem assays (depositor defined):AID1018, AID1449, AID1514, AID1638, AID1749, AID1750, AID488957, AID488963].
The target in assay [13] is T4, Voltage-gated N-type calcium channel alpha-1B subunit/Amyloid beta A4 precursor protein-binding family A member 1. It is filed as protein assay. This is another data set of the same source.
For another assay, the target named is Hexokinase (Trypanosoma brucei, UniProt Q38C41). Kind of assay: Confirmation assay for inhibitors of Trypanosoma brucei hexokinase 1-Analogue-first series. [Related pubchem assays (depositor defined):AID1430, AID1632, AID2516, AID2560, AID2579, AID2600, AID449725, AID492951]. It is filed as functional.
Chain of Hexokinase (Q38C41 whole entry): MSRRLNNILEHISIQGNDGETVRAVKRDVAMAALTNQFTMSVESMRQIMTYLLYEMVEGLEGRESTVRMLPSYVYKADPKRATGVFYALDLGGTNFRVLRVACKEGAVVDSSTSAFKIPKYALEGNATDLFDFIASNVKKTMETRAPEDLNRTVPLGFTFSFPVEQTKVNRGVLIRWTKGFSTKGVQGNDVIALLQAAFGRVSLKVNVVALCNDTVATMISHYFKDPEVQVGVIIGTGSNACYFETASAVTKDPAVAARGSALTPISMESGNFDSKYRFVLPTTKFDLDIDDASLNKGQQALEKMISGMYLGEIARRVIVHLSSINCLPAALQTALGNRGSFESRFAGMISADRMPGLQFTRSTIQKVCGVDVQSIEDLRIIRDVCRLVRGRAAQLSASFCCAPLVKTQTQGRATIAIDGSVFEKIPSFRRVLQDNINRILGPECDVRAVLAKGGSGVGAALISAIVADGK

T4 sequence (Q00975 whole entry): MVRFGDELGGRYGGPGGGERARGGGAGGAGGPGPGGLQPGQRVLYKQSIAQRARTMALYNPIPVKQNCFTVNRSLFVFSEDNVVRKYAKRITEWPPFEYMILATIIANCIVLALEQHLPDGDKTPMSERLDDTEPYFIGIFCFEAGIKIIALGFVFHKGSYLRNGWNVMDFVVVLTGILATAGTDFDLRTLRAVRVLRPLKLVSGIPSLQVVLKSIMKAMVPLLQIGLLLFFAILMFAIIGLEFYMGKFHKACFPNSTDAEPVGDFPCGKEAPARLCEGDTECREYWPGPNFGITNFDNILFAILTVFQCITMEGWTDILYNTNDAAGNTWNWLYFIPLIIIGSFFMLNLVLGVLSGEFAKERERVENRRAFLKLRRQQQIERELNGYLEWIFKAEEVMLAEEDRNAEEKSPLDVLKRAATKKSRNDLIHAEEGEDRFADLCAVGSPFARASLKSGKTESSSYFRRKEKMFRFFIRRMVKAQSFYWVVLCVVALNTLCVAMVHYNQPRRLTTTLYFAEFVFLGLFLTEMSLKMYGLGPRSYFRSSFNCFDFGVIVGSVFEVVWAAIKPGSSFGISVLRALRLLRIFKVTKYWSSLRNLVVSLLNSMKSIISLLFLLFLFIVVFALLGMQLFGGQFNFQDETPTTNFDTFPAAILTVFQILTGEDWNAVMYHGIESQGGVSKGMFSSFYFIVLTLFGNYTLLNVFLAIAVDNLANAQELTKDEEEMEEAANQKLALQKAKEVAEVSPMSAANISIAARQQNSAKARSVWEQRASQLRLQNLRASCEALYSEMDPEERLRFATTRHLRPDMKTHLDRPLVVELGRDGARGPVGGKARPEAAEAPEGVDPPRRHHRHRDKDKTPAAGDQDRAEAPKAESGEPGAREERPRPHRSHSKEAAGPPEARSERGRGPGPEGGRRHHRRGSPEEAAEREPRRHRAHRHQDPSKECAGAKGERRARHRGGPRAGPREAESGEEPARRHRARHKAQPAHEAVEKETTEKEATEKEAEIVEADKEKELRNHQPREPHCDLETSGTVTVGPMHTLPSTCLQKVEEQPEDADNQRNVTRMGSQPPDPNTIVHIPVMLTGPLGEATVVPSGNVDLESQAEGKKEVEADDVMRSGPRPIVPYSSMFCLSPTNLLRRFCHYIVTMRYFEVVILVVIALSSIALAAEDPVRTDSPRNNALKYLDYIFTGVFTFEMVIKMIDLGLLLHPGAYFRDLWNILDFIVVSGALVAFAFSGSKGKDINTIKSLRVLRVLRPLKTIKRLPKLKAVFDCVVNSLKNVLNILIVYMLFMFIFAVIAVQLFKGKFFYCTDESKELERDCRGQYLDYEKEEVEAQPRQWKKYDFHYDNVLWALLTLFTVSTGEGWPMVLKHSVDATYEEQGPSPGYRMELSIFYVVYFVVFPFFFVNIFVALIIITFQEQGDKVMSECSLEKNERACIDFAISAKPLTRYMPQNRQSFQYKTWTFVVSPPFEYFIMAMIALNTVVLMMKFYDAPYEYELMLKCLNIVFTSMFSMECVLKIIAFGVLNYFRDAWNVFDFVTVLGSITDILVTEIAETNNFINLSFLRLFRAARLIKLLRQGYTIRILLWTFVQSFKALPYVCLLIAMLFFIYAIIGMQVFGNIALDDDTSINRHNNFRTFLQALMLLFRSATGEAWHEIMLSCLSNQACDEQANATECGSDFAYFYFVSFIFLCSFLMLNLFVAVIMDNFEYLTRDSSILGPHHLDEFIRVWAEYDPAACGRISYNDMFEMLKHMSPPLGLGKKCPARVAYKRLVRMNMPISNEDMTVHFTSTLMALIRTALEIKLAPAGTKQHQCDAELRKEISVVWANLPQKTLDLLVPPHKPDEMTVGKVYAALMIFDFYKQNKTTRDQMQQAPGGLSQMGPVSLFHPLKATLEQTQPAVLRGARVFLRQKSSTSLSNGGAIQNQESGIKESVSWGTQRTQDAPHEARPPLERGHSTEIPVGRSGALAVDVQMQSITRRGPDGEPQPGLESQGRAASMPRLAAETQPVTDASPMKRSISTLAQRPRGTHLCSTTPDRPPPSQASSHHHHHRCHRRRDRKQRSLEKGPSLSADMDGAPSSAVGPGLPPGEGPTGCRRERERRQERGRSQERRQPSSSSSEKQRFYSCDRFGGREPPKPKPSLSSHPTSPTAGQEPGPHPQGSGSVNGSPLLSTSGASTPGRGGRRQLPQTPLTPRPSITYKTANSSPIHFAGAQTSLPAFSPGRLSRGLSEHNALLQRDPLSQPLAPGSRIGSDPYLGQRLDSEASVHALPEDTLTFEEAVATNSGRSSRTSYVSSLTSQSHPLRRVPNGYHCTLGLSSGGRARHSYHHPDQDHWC
T4 sequence (Q02410 whole entry): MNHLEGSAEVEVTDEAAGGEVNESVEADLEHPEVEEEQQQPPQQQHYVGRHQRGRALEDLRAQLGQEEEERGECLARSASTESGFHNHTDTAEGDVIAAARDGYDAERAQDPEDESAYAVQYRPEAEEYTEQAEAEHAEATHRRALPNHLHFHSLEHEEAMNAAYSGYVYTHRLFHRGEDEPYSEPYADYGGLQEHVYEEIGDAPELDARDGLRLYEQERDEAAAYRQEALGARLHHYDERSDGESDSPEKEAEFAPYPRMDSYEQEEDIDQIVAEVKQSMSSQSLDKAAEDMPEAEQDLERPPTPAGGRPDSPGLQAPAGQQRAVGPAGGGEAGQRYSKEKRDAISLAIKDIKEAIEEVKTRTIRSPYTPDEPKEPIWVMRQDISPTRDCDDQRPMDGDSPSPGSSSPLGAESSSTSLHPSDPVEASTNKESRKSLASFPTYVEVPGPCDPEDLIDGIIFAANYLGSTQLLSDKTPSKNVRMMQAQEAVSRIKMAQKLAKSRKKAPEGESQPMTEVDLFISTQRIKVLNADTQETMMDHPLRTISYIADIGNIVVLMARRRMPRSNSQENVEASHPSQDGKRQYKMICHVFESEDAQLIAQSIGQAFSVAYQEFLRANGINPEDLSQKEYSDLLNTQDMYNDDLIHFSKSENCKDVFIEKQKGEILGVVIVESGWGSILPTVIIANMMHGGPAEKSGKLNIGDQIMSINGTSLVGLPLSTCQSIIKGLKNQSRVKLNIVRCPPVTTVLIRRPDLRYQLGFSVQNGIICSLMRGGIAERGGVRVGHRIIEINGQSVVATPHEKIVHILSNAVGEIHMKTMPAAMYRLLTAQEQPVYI
Chain of Nucleotide-binding oligomerization domain-containing protein 2 (Q9HC29 whole entry, the tested form may be a part): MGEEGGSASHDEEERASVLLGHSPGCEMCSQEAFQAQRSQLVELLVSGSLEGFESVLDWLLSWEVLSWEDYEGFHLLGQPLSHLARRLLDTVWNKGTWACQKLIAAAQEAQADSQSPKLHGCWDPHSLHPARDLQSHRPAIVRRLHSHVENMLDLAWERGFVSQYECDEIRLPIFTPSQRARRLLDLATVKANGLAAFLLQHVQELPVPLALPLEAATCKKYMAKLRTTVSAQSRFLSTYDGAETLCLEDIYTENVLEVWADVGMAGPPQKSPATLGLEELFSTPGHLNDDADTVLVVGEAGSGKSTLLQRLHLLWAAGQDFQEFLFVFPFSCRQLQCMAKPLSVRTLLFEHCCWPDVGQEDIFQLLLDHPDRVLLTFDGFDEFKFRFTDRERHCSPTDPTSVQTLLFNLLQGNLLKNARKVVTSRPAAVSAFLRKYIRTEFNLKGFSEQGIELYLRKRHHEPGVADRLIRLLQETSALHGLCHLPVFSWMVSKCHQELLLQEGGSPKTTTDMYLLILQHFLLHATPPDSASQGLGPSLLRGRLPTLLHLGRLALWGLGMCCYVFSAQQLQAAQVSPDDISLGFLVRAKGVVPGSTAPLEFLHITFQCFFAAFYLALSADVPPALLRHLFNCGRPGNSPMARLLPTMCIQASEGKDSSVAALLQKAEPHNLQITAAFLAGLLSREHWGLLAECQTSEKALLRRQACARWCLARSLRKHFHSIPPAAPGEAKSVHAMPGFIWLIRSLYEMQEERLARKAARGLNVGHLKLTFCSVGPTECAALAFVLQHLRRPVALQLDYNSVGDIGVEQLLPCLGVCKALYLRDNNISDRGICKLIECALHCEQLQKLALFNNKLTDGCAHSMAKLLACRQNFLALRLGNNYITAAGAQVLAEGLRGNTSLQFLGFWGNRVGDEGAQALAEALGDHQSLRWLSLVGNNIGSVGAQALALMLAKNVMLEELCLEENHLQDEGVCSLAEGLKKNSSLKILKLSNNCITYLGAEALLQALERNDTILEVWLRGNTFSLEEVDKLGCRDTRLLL

Turning to `Nc1nn2c(O)cc(-c3ccccc3)nc2c1N=Nc1ccc2c(c1)OCO2`, the EC50 is > 20 µM (inactive) in [1], 18.4 µM (active) with HEK293 [2], 2.16 µM (active) in assay [7] and 3.77 µM (active) in the assay with Streptococcus. Besides, the IC50 is 14.5 µM (inactive) in the assay on HEK293 [3], > 20 µM (inactive) in the assay with HEK293 [5], 19 µM (active) in the assay on HEK293 [6] and > 20 µM (inactive) with HEK293 [8]. Moreover, the CC50 in [4] is 29.9 µM (active).
For the compound `O=C(CCl)Nc1c2c(nn1-c1ccccc1)CSC2`, the EC50 in [1] is > 20 µM (inactive); in the assay with HEK293 [2], 3.07 µM (active); at Protein RecA it was 11.4 µM (active). The AC50 in [9] is 60.5 µM (active). For the same compound, the IC50 is 15.1 µM (inactive) in the assay on HEK293 [3], 8.63 µM (active) in the assay on HEK293 [5], > 20 µM (inactive) in the assay on HEK293 [6] and > 20 µM (inactive) in the assay on HEK293 [8].
As for `CC(C)Cc1nc(N2CCOCC2)c(C#N)c2c1CCC2`, the 50% effective concentration (EC50) in assay [10] is 6.68 µM (active).
On to `O=C(Nc1ccc(S(=O)(=O)N2CCOCC2)cc1)c1ccc(O)nc1`, for which the IC50 in assay [11] is > 50 µM (inactive); in assay [12] it was > 20 µM (inactive); in assay [13] it was 7.16 µM (active).
For the compound `O=C(Nc1cc(Cl)ccc1C(=O)O)c1ccccc1`, the IC50 on Hexokinase was > 25 µM (inactive).
As to `O=c1c2cc(F)ccc2sn1-c1ccc(Cl)cc1`, the IC50 on Hexokinase was 3.01 µM (active).
Turning to `CCOc1ccc(Br)cc1/C=N/O`, in [10], the 50% effective concentration (EC50) is 5.96 µM (active).

The values are drawn from ChEMBL document CHEMBL1201862, “PubChem BioAssay data set” (2004).
